The values that follow come from patent publication US9006205B2, “Antisense oligonucleotides against neutral sphingomyelinase and neutral sphingomyelinase inhibitor GW4869 for degenerative neurological disorders” (Rush University Medical Center, priority 2011, dated 2015).

Format in all cases: cell-based
The subject of series [1] is primary human neurons. The series is described as follows: MTT metabolism of neurons in astrocyte-neuron trans-well. The conditions noted are these: neurons pretreated with oligonucleotide; 18 h of stimulation. The method, then: (§1) Primary human astrocytes were grown to confluency on inserts. After 24 h of stimulation by the combination of Aβ (1 μM) and IL-Iβ (10 ng/ml), inserts were washed thrice with HBSS and then placed onto the wells containing primary human neurons. Therefore, in this trans-well model, although neurons and astrocytes face each other, they are separable and the effect of soluble factors released from activated astrocytes on neurons can be studied allowing analysis of neuronal and glial populations separately.
Mitochondrial activity was measured with the 3-(4,5-dimethylthiazol-2-yl)-2,5-diphenyltetrazolium bromide (MTT) assay (Sigma). The cells were grown on 24-well culture plates with 500 μl of medium and treated with various reagents according to the experimental design. At the end of the treatment period, 300 μl of culture medium were removed from each well, and 20 μl of MTT solution (5 mg/ml) were added and incubated for 1 h.
(§2) Primary human neurons were incubated with antisense (ASO) and scrambled oligonucleotides (ScO) against N-SMase (A) and A-SMase (FIG. 2B). After 48 h, neurons were analyzed for protein expression of N-SMase and A-SMase. In FIG. 2C, primary human astrocytes seeded in inserts were stimulated by the combination of Aβ and IL-1β as described above. […] After 6 h of treatment with activated astrocytes, apoptotic events in neurons were detected by TUNEL. In FIG. 2D, TUNEL-positive cells were counted manually in four different images of each of three coverslips by three individuals blinded to the experiment. […] Values obtained from the control group served as 100%, and data obtained in other groups were calculated as percent of control accordingly. […]
In FIGS. 3A-3E, primary human astrocytes seeded in inserts were stimulated by the combination of Aβ and IL-Iβ as described above. […] In FIG. 3A, after 1 h, activity of N-SMase was measured in total cell extracts of neurons as described above. […] Values obtained from the control group served as 100%, and data obtained in other groups were calculated as percent of control accordingly.

Series [2] has as its system primary human neurons. Put plainly: TUNEL apoptosis of neurons challenged by (fibrillar Aβ+IL-1β)-activated astrocytes, astrocyte-neuron trans-well. The conditions noted are these: neurons pretreated 40 h with 1 μM oligonucleotide; 6 h with (fibrillar Aβ+IL-1β)-activated astrocytes. As for the experimental part:
as §1
Fragmented DNA was detected in situ by the terminal deoxynucleotidyltransferase-mediated binding of 3′-OH ends of DNA fragments generated in response to fibrillar Aβ1-42, using a commercially available kit (TdT FragEL™) from Calbiochem. […]
as §2, with “A-SMase.” for “A-SMase. In FIG. 2C, primary human astrocytes seeded in inserts were stimulated by the combination of Aβ and IL-1β as described above.”

In another series the test system is primary human astroglia. The series is described as follows: NO synthesis (nitrite, Griess reagent) in primary human astroglia. The conditions noted are these: astroglia pretreated 40 h with oligonucleotide; nitrite after 24 h of stimulation. As for the experimental part:
Synthesis of NO was determined by assay of culture supernatants for nitrite, a stable reaction product of NO with molecular oxygen, using Griess reagent as described.
After 24 h of stimulation, the concentration of nitrite was measured in supernatants (FIG. 4A) by Griess reagent. […] Cells were treated with ASO/ScO for 40 h followed by stimulation with the combination of fibrillar Aβ and IL-Iβ as above. After 6 h, the expression of iNOS mRNA was analyzed by both semi-quantitative RT-PCR (C) and quantitative real-time PCR (FIG. 4D). The expression of TNF-a, IL-6 and IL-Iβ mRNAs were analyzed by semi-quantitative RT-PCR (FIG. 4E). Results are mean±SD of three different experiments. ^ap<0.001 vs control; ^bp<0.001 vs (Aβ+IL-Iβ).
Background: The Griess reaction detects nitrite, a stable product of nitric oxide.

The next series has as its system NF-κB. Put plainly: EMSA of NF-κB DNA-binding activity in primary human astroglia. The conditions noted are these: 1 μM oligonucleotide 40 h; 1 h of stimulation.
The next series deals with N-SMase. Put plainly: Western blot of N-SMase protein after antisense knockdown in primary human neurons. The conditions noted are these: 48 h with oligonucleotide. As for the experimental part: Because these ASOs have become a very critical part of our study, the efficacy of N-SMase and A-SMase ASOs in inhibiting the protein expression of N-SMase and A-SMase was checked by western blot. […] Next, the effect of antisense knockdown of neuronal N-SMase and/or A-SMase on activated glia-induced neuronal apoptosis by TUNEL was investigated. […] As evidenced by a decrease In MTT metabolism, activated astroglia reduced neuronal viability (FIG. 2E).
Primary human neurons were incubated with antisense (ASO) and scrambled oligonucleotides (ScO) against N-SMase (A) and A-SMase (FIG. 2B). After 48 h, neurons were analyzed for protein expression of N-SMase and A-SMase. In FIG. 2C, primary human astrocytes seeded in inserts were stimulated by the combination of Aβ and IL-1β as described above. […] After 6 h of treatment with activated astrocytes, apoptotic events in neurons were detected by TUNEL. In FIG. 2D, TUNEL-positive cells were counted manually in four different images of each of three coverslips by three individuals blinded to the experiment. In FIG. 2E, after 18 h of stimulation, cell viability was examined by the metabolism of MTT and the release of LDH. […] Cell viability was checked by MTT (FIG. 2F) and LDH (FIG. 2G). Values obtained from the control group served as 100%, and data obtained in other groups were calculated as percent of control accordingly. […]
On the technique in general: A western blot detects proteins with antibodies after separation by electrophoresis.

For “5′- CAGCGAGCCCGTCCACCAGCC -3′ (DNA, all phosphorothioate, methylation of C not given here) [ASO against N-SMase, ID; NO.: 12]”, in the series with primary human neurons [1], the “activated astroglia-mediated loss of MTT metabolism” value is given as “effectively prevented”. In addition, the “protection of neurons from activated astrocyte-induced apoptosis (TUNEL)” value in the series with primary human neurons [2] is “markedly protected”. In the series on primary human astroglia, the “(Aβ+IL-1β)-induced production of NO” value is reported as “markedly abrogated”. In addition, the “(Aβ+IL-1β)-induced DNA-binding activity of NF-κB” value in the series with NF-κB was “suppressed”. Moreover, in the series with N-SMase, the “level of N-SMase protein” value is listed as “effectively inhibited”.
